Experimental data taken from patent US20080267932A1, “Lactobacillus Rhamnosus with Body-Fat Reducing Activity and the Foods Containing Them” (priority 2004, published 2008).

Columns and labels:
[1] = system: Lactobacillus rhamnosus Strain PL60; assay: Antibiotic resistance (diameter of growth inhibition); format: cell-based; conditions: antibiotic against Lactobacillus rhamnosus Strain PL60
CLA production from LA = conditions: reported strains, for comparison; cited from earlier work
overweight people = conditions: cited from earlier work

| Compound | Diameter(mm) of growth inhibition [1] | other results |
| --- | --- | --- |
| CCN1CCN(C(=O)N[C@@H](C(=O)N[C@@H]2C(=O)N3C(C(=O)O)=C(CSc4nnnn4C)CS[C@H]23)c2ccc(O)cc2)C(=O)C1=O [Cefoperazone] | 22 mm | – |
| CC1(C)S[C@@H]2[C@H](NC(=O)C(C(=O)O)c3ccccc3)C(=O)N2[C@H]1C(=O)O (stereo partly shown) [Carbenicillin] | 25 mm | – |
| CCC[C@@H]1C[C@@H](C(=O)N[C@@H]([C@H]2O[C@H](SC)[C@H](O)[C@@H](O)[C@H]2O)[C@H](C)Cl)N(C)C1 [Clindamycin] | 26 mm | – |
| CC[C@H]1OC(=O)[C@H](C)[C@@H](O[C@H]2C[C@@](C)(OC)[C@@H](O)[C@H](C)O2)[C@H](C)[C@@H](O[C@@H]2O[C@H](C)C[C@H](N(C)C)[C@H]2O)[C@](C)(O)C[C@@H](C)C(=O)[C@H](C)[C@@H](O)[C@]1(C)O [Erythromycin] | 28 mm | – |
| [H]/N=C(/N)N[C@H]1[C@H](O)[C@@H](O)[C@H](O[C@@H]2O[C@@H](C)[C@](O)(C=O)[C@H]2O[C@@H]2O[C@@H](CO)[C@H](O)[C@@H](O)[C@@H]2NC)[C@@H](N/C(N)=N\[H])[C@@H]1O [Streptomycin] | 11 mm | – |
| CC1(C)S[C@@H]2[C@H](NC(=O)[C@H](N)c3ccccc3)C(=O)N2[C@H]1C(=O)O [Ampicillin] | 21 mm | – |
| Gentamicin | 10 mm | – |
| Penicillin | 25 mm | – |
| CO[C@H]1/C=C/O[C@@]2(C)Oc3c(C)c(O)c4c(O)c(c(/C=N/N5CCN(C)CC5)c(O)c4c3C2=O)NC(=O)/C(C)=C\C=C\[C@H](C)[C@H](O)[C@@H](C)[C@@H](O)[C@@H](C)[C@H](OC(C)=O)[C@@H]1C [Rifampin] | 24 mm | – |
| CN(C)[C@@H]1C(O)=C(C(N)=O)C(=O)[C@@]2(O)C(O)=C3C(=O)c4c(O)cccc4[C@@](C)(O)[C@H]3C[C@@H]12 [Tetracycline] | 29 mm | – |
| O=C(N[C@H](CO)[C@H](O)c1ccc([N+](=O)[O-])cc1)C(Cl)Cl [Chloramphenicol] | 24 mm | – |
| CN[C@H](CC(C)C)C(=O)N[C@H]1C(=O)N[C@@H](CC(N)=O)C(=O)N[C@H]2C(=O)N[C@H]3C(=O)N[C@H](C(=O)N[C@H](C(=O)O)c4cc(O)cc(O)c4-c4cc3ccc4O)[C@H](O)c3ccc(c(Cl)c3)Oc3cc2cc(c3O[C@@H]2O[C@H](CO)[C@@H](O)[C@H](O)[C@H]2O[C@H]2C[C@](C)(N)[C@H](O)[C@H](C)O2)Oc2ccc(cc2Cl)[C@H]1O [Vancomycin] | 6 mm | – |
| Lactobacillus reuteri | – | yield of t10c12 CLA (CLA production from LA): 30 ppm |
| conjugated linoleic acid [CLA] | – | weight loss (overweight people; 180 overweight people, administered for one year): 4-10%; side effects (overweight people; in vivo): without side effects |
| CCN1CCN(C(=O)N[C@@H](C(=O)N[C@@H]2C(=O)N3[C@@H]2SC(C)(C)[C@@H]3C(=O)O)c2ccccc2)C(=O)C1=O [Piperacilin] | 30 mm | – |
| Trimethpprime/sulfamethoxasole | 6 mm | – |
| CC(=O)OCC1=C(C(=O)O)N2C(=O)[C@@H](NC(=O)Cc3cccs3)[C@H]2SC1 [Cephalothin] | 20 mm | – |
| Cc1onc(-c2ccccc2)c1C(=O)N[C@@H]1C(=O)N2[C@@H]1SC(C)(C)[C@@H]2C(=O)O [Oxacillin] | 8 mm | – |
